Key:
[1] = test system: HCT116 colorectal carcinoma; experiment: In vitro cytotoxicity (CellTiter-Blue), HCT116; assay type: cell-based; settings: Homo sapiens, HCT-116; 72 hours of incubation
Procedure: (§1) The biological activity of the compounds of the invention were studied in vitro on […] human cancer cell lines of different tissular origins: HCT116 colorectal carcinoma; A2780R Cisplatin resistant ovary cancer; MiaPaca2 pancreatic cancer; K562R Doxorubicin resistant chronic myeloid leukaemia; JIM-T1 Trastuzumab-DM1 resistant mammal carcinoma; and HepG2 hepatic carcinoma. The cells selected for this study were incubated at 37° C. in the presence of one of the compounds added to the culture medium at different concentrations. The series of experiments carried out made it possible to determine the degree of toxicity of the compound tested, its effect on cell cycle progression as well as its capacity to induce cell death by apoptosis.
All the cell lines were maintained in culture at 37° C. in a humid atmosphere containing 5% CO2. Cell viability was evaluated using the reagent CellTiter-Blue™ (Promega, Wis., USA) while respecting the manufacturer's instructions. The cells were seeded in 96 well culture plates at a rate of 5000 cells per […] in 50 μl of culture medium. After 24 hours of culture, the compounds of generic formula (I) dissolved in DMSO were added individually to each of the wells at a rate of 50 μl per well. All the compounds were tested in triplicate for each concentration defined and each experiment was repeated 3 times. After 72 hours of incubation, 20 μL of resazurin were added to each well. After 2 hours of incubation, the fluorescence emitted was measured at 590 nm after excitation at 560 nm by means of a Victor type fluorescence reader (Perkin-Elmer, USA).

[2] = test system: A2780R Cisplatin resistant ovary cancer; experiment: In vitro cytotoxicity (CellTiter-Blue), A2780R; assay type: cell-based; settings: Homo sapiens; 72 hours of incubation
Procedure: as §1
(§2) All the cell lines were maintained in culture at 37° C. in a humid atmosphere containing 5% CO2. Cell viability was evaluated using the reagent CellTiter-Blue™ (Promega, Wis., USA) while respecting the manufacturer's instructions. The cells were seeded in 96 well culture plates at a rate of 5000 cells per […] in 50 μl of culture medium. […] After 2 hours of incubation, the fluorescence emitted was measured at 590 nm after excitation at 560 nm by means of a Victor type fluorescence reader (Perkin-Elmer, USA).

[3] = test system: MiaPaca2 pancreatic cancer; experiment: In vitro cytotoxicity (CellTiter-Blue), MiaPaca2; assay type: cell-based; settings: Homo sapiens, MIA PaCa-2; 72 hours of incubation
Procedure: as §1, §2

[4] = test system: K562R Doxorubicin resistant chronic myeloid leukaemia; experiment: In vitro cytotoxicity (CellTiter-Blue), K562R; assay type: cell-based; settings: Homo sapiens, K-562R; 72 hours of incubation
Procedure: as §1, §2

[5] = test system: JIM-T1 Trastuzumab-DM1 resistant mammal carcinoma; experiment: In vitro cytotoxicity (CellTiter-Blue), JIM-T1; assay type: cell-based; settings: Homo sapiens, JIMT-1; 72 hours of incubation
Procedure: as §1, §2

tubulin = experiment: Tubulin polymerisation inhibition (fluorescence assembly assay); assay type: biochemical, ewe; settings: inhibition of 50% of the maximum assembly rate; tubulin 10 μM
Procedure: The tubulin is purified from ewe brains according to the Shelanski method by 2 assembly-disassembly cycles. The mother solution (15-20 mg/mL), stored at −196° C., is thawed and diluted in the assembly buffer (0.1 M MES, 0.5 mM MgCl2, 1 mM EGTA, and 1 mM GTP, pH 6.6) to have a final concentration of 10 μM. Tubulin assembly is monitored by fluorescence on 96 well plates according to the method of Barron et al. (Anal. Biochem. 315 (2003) 49-56). To the solution of tubulin (10 μM, 100 μL per well) is added the inhibitor (DMSO, 1 μL) and the solution is incubated for 45 min at room temperature. GTP (1 mM final) is next added, the solution is rapidly mixed and the fluorescence (λex=350 nm, λem=440 nm) is measured on a Wallac Victor fluorimeter (Perkin Elmer). The determination of the inhibition of 50% of the maximum assembly rate (IC50) is carried out in duplicate or triplicate over 10 concentrations surrounding the IC50.

HCT116 cells [6] = experiment: Analysis of the cell cycle by flow cytometry; assay type: cell-based, human; settings: HCT116, 24 hours of exposure, 5 nM
Procedure: The HCT116 cells are seeded in 6 well culture plates at a rate of 300,000 cells per well in their respective media described above. After 24 hours of culture, compound 1 was added to each of the wells at different concentrations. After 24 hours of incubation, the cells are collected individually in 15 mL tubes then centrifuged. The cells are next washed twice in cold PBS then re-suspended in 1 mL of PBS, fixed by adding 2 mL of cold absolute ethanol and placed at 4° C. for 1 hour. After centrifugation, the cells are washed twice in PBS then the cell pellet is taken up in 100 μL of 1%. Triton X100. After 30 minutes of incubation at room temperature, 50 μL of RNase A boiled beforehand (1 mg/mL) and 500 μL of propidium iodide (50 μg/mL) are added to each tube and incubated in darkness at room temperature for 30 minutes. The distribution of the number of cells in each of the phases of the cell cycle is next determined by flow cytometry using a FC500 type cytometer (Beckman-Coulter, France).

HCT116 cells [7] = experiment: Apoptosis, caspase-3/7 activity (Apo-one assay); assay type: cell-based, human; settings: HCT116, 24 h treatment, various concentrations
Procedure: In order to clarify whether compound 1 brings about cell death by apoptosis, the intracellular enzymatic activity of caspases 3 and 7 was evaluated in cultures of HCT116 cells exposed for 24 hours to the action of compound 1.
Apoptosis is measured using the “Apo-one homogeneous caspase-3/7 assay” kit (Promega Co, WI, USA) following the manufacturer's recommendations. Briefly, the cells are seeded in 96 well culture plates at a rate of 50,000 cells per well in 100 μL of culture medium. After 24 hours of incubation, the medium is replaced by 100 μL of culture medium containing different concentrations of compound 1 or 0.1% of DMSO (negative control). After 24 hours of treatment, to each well is added 100 μL of reagent containing the caspase substrate and the buffer for the reaction. After 1 hour incubation, the fluorescence emitted by the cells is measured at 527 nm using a Victor type microplate reader (Perkin-Elmer, USA).

HUVECs = experiment: Formation of vascular tubes on Matrigel; assay type: cell-based, human; settings: 5 hours, 10 nM (non-toxic)
Procedure: To determine whether compound 1 disrupts the spatial organisation of endothelial cells into structures similar to vascular capillaries, human endothelial cells (HUVECs) were treated immediately after culturing on Matrigel™ or after 24 hours of culture, in order to allow them to form vascular tubes.
The HUVECs (human endothelial cells derived from the umbilical cord) were cultivated in EGM2 culture medium (Promocell, Germany). The cells were maintained in culture at 37° C. in a humid atmosphere containing 5% CO2.
To evaluate the anti-vascular activity of compound 1, the HUVECs were cultured in 96 well culture plates covered beforehand with an extract of extracellular matrix (Matrigel™, BD Biosciences, Le Pont-de-Claix, France) in which they spontaneously form capillary tubes.
Firstly, we measured the capacity of compound 1 to inhibit the formation of the capillary network. Matrigel™ is deposited in the 96 well culture plates at a rate of 70 μL/well and left to incubate at 37° C. for 45 minutes to enable its polymerisation. 20,000 HUVECs are seeded in each of the wells containing Matrigel™ in the absence or in the presence of different concentrations of compound 1, at a rate of 3 wells per concentration. After 2 hours, 3 hours and 5 hours of incubation at 37° C., the cells are observed and photographed using a TE2000 type optical microscope (Nikon, France), equipped with a camera. […]

[8] = prior art WO 2008/122620; cited from earlier work

Compound	IC50 (tubulin) [nM]	IC50 [1] [nM]	also measured
Cc1cc(N(C)c2ccc3c(c2)c2ccccc2n3C)c2ccccc2n1 [Compound 1, N,9-Dimethyl-N-(2-methylquinolin-4-yl)-9H-carbazol-3-amine]	1130 ± 160	0.07 ± 0.09	IC50 [2]: 0.54 ± 0.094 nM; IC50 [3]: 0.47 ± 0.01 nM; IC50 [4]: 0.277 ± 0.017 nM; IC50 [5]: 0.36 ± 0.02 nM; Effect on cell cycle (HCT116 cells [6]): blocks cellular division in the G2/M phase; Induction of apoptosis (caspases 3 and 7 activity) (HCT116 cells [7]): strong induction of apoptosis; Number of vascular tubes (HUVECs): very important decrease in the number of vascular tubes
CN(c1ccc2c(c1)c1ccccc1n2C)c1cc(C#N)nc2ccccc12 [Compound 2, 4-(Methyl(9-methyl-9H-carbazol-3-yl)amino)quinoline-2-carbonitrile]	1400 ± 510	12 ± 0.8	
CN(c1ccc2c(c1)c1ccccc1n2C)c1ccnc2ccccc12 [Compound 4, N,9-Dimethyl-N-(quinolin-4-yl)-9H-carbazol-3-amine]			melting point: 222.2 to 228.4 °C
Cc1cc(N(C)c2ccc3c(c2)c2ccccc2n3Cc2ccccc2)c2ccccc2n1 [Compound 5, 9-Benzyl-N-methyl-N-(2-methylquinolin-4-yl)-9H-carbazol-3-amine]			melting point: 192.7 to 196.5 °C
COc1cccc2c(N(C)c3ccc4c(c3)c3ccccc3n4C)cc(C)nc12 [Compound 6, N-(8-Methoxy-2-methylquinolin-4-yl)-N,9-dimethyl-9H-carbazol-3-amine]	1480 ± 520	21.6 ± 0.71	
Cc1cc(N(C)c2ccc3c(c2)c2ccccc2n3C)c2cc([N+](=O)[O-])ccc2n1 [Compound 7, N,9-Dimethyl-N-(2-methyl-6-nitroquinolin-4-yl)-9H-carbazol-3-amine]			melting point: 207.6 to 212.4 °C
CCn1c2ccccc2c2cc(N(C)c3cc(C)nc4ccccc34)ccc21 [Compound 8, 9-Ethyl-N-methyl-N-(2-methylquinolin-4-yl)-9H-carbazol-3-amine]			melting point: 87.4 to 89.6 °C
Cc1nc(N(C)c2ccc3c(c2)c2ccccc2n3C)c2ccccc2n1 [Compound 9, N,9-Dimethyl-N-(2-methylquinazolin-4-yl)-9H-carbazol-3-amine]	3800 ± 900	2.4 ± 0.2	
CN(c1ccc2c(c1)c1ccccc1n2C)c1nc(Cl)nc2ccccc12 [Compound 10, N-(2-Chloroquinazolin-4-yl)-N,9-dimethyl-9H-carbazol-3-amine]	3140 ± 1040	1.06 ± 0.2	
Cc1cc(N(C)c2ccc3c(c2)c2cc(N)ccc2n3C)c2ccccc2n1 [Compound 14, N3,9-dimethyl-N3-(2-methylquinolin-4-yl)-9H-carbazole-3,6-diamine]	2760 ± 500	2.88 ± 1.54	
C=C(c1ccc(OC)c(O)c1)c1cc(OC)c(OC)c(OC)c1 [isoCA-4, Isocombretastatin A-4]			Metabolism in the presence of hepatocytes [8]: do not metabolise in the presence of hepatocytes
C=C(c1ccc(OC)c(N)c1)c1cc(OC)c(OC)c(OC)c1 [isoNH2CA-4, isoaminocombretastatin A-4]			Metabolism in the presence of hepatocytes [8]: do not metabolise in the presence of hepatocytes

More lines, main results first:

IC50 (tubulin) [nM]	Compound	IC50 [1] [nM]	also measured
1240 ± 400	Cc1cc(N(C)c2ccc3c(c2)c2ccccc2n3C)c2cccc(O)c2n1 [Compound 15, 2-Methyl-4-(methyl(9-methyl-9H-carbazol-3-yl)amino)quinolin-8-ol]	50.6 ± 0.66	
5760 ± 1470	Cc1cc(N(C)c2ccc3c(c2)c2ccccc2n3C)c2cc(N)ccc2n1 [Compound 16, N4,2-Dimethyl-N4-(9-methyl-9H-carbazol-3-yl)quinoline-4,6-diamine]	24.5 ± 1.92	
1160 ± 310	CN(c1ccc2c(c1)c1ccccc1n2C)c1cc(Cl)nc2ccccc12 [Compound 17, N-(2-Chloroquinolin-4-yl)-N,9-dimethyl-9H-carbazol-3-amine]	16.7 ± 0.38	
1340 ± 450	Cc1cc(N(C)c2ccc3c(ccn3C)c2)c2ccccc2n1 [Compound 18, N,2-Dimethyl-N-(1-methyl-1H-indol-5-yl)quinolin-4-amine]	2 ± 0.04	
2780 ± 1140	CN(c1ccc2c(ccn2C)c1)c1cc(C#N)nc2ccccc12 [Compound 19, 4-(Methyl(1-methyl-1H-indol-5-yl)amino)quinoline-2-carbonitrile]	0.72 ± 0.03	melting point: 173.1 to 174.2 °C
2500 ± 540	CN(c1ccc2c(ccn2C)c1)c1cc(C(F)(F)F)nc2ccccc12 [Compound 20, N-Methyl-N-(1-methyl-1H-indol-5-yl)-2-(trifluoromethyl)quinolin-4-amine]	3.28 ± 0.18	
1190 ± 280	CN(c1ccc2c(ccn2C)c1)c1nc(Cl)nc2ccccc12 [Compound 21, 2-Chloro-N-methyl-N-(1-methyl-1H-indol-5-yl)quinazolin-4-amine]	0.2 ± 0.01	IC50 [2]: 2.34 ± 0.18 nM; IC50 [3]: 0.62 ± 0.016 nM; IC50 [4]: 1.77 ± 0.162 nM; IC50 [5]: 0.52 ± 0.016 nM
